Reference: article PMC4770715, “LIM kinase inhibitors disrupt mitotic microtubule organization and impair tumor cell proliferation” (Oncotarget, 2015)

Experiments:
Experiment in all cases: biochemical
Set-up in all cases: KINOMEscan active-site competition binding, percent of control (100 = no competition)
Details in all cases: competition binding, percent control
[1] = biological target: T1, ABL1(T315I)-nonphosphorylated (Homo sapiens, UniProt P00519, T315I)
T1 construct: nonphosphorylated

[2] = biological target: BMPR1A (Homo sapiens, UniProt P36894)
[3] = biological target: BMX (Homo sapiens, UniProt P51813)
[4] = biological target: CAMKK1 (Homo sapiens, UniProt Q8N5S9)
[5] = biological target: DYRK2 (Homo sapiens, UniProt Q92630)
[6] = biological target: FER (Homo sapiens, UniProt P16591)
[7] = biological target: KIT(V559D,V654A) (Homo sapiens, UniProt P10721, V559D/V654A)
[8] = biological target: T2, LKB1 (Homo sapiens, UniProt Q15831)
T2 construct: gene STK11

[9] = biological target: LRRK2(G2019S) (Homo sapiens, UniProt Q5S007, G2019S)
[10] = biological target: MAP4K5 (Homo sapiens, UniProt Q9Y4K4)
[11] = biological target: T3, MEK1 (Homo sapiens, UniProt Q02750)
T3 construct: gene MAP2K1

[12] = biological target: PDPK1 (Homo sapiens, UniProt O15530)
[13] = biological target: T4, PFCDPK1(P.falciparum) (Plasmodium falciparum, UniProt P62344)
T4 construct: gene CDPK1

[14] = biological target: PIK3CA(I800L) (Homo sapiens, UniProt P42336, I800L)
[15] = biological target: PIK3CB (Homo sapiens, UniProt P42338)
[16] = biological target: T5, PKAC-beta (Homo sapiens, UniProt P22694)
T5 construct: gene PRKACB

[17] = biological target: PRKCD (Homo sapiens, UniProt Q05655)
[18] = biological target: PRKCH (Homo sapiens, UniProt P24723)
[19] = biological target: PRKCQ (Homo sapiens, UniProt Q04759)
[20] = biological target: ROCK1 (Homo sapiens, UniProt Q13464)
[21] = biological target: T6, RSK1(Kin.Dom.2-C-terminal) (Homo sapiens, UniProt Q15418)
T6 construct: gene RPS6KA1; Kin.Dom.2-C-terminal

[22] = biological target: T7, VEGFR2 (Homo sapiens, UniProt P35968)
T7 construct: gene KDR

T3 sequence (Q02750 whole entry): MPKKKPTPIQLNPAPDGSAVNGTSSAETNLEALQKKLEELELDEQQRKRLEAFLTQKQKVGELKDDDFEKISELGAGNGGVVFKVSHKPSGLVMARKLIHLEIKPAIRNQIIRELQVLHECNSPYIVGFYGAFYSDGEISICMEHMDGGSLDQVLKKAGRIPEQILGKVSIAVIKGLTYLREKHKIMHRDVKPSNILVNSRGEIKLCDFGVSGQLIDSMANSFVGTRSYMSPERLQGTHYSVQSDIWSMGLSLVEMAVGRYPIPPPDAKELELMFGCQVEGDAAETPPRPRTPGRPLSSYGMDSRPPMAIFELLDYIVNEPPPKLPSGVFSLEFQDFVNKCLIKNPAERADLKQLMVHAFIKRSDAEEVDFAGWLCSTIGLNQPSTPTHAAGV
BMX, sequence (P51813 whole entry): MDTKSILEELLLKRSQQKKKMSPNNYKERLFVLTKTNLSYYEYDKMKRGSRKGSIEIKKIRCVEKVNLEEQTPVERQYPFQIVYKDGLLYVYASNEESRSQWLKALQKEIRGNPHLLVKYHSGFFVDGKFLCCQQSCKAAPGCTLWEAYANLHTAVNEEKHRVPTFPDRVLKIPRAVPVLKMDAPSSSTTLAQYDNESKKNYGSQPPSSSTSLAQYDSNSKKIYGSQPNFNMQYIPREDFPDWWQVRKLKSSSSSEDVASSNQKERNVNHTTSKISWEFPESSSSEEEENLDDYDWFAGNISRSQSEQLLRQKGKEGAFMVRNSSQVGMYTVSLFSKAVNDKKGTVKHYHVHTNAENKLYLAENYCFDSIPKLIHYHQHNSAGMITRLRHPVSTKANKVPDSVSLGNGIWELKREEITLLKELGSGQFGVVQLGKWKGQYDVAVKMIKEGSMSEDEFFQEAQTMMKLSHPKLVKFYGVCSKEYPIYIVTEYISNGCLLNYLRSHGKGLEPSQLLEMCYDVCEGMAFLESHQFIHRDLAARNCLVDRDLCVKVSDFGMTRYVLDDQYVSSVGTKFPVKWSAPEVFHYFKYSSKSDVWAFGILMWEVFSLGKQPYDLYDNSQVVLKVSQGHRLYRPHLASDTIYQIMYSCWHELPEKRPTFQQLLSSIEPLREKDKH
PDPK1, sequence (O15530 whole entry): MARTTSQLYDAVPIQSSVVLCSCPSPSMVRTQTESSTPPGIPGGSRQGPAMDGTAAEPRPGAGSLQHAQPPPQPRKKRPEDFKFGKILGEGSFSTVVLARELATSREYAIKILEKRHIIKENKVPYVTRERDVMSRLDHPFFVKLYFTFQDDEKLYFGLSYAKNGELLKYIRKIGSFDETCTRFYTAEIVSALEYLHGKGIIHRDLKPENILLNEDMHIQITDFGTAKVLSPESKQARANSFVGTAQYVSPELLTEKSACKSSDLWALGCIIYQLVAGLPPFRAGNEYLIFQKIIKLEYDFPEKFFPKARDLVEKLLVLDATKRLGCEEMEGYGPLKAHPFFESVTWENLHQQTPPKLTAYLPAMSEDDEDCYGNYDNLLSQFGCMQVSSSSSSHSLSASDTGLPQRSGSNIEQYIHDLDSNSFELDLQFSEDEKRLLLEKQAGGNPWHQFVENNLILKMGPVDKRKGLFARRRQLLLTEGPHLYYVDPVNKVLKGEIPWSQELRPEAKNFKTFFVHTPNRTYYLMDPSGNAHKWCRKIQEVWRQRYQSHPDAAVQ
PIK3CA(I800L), sequence (P42336 whole entry I800L): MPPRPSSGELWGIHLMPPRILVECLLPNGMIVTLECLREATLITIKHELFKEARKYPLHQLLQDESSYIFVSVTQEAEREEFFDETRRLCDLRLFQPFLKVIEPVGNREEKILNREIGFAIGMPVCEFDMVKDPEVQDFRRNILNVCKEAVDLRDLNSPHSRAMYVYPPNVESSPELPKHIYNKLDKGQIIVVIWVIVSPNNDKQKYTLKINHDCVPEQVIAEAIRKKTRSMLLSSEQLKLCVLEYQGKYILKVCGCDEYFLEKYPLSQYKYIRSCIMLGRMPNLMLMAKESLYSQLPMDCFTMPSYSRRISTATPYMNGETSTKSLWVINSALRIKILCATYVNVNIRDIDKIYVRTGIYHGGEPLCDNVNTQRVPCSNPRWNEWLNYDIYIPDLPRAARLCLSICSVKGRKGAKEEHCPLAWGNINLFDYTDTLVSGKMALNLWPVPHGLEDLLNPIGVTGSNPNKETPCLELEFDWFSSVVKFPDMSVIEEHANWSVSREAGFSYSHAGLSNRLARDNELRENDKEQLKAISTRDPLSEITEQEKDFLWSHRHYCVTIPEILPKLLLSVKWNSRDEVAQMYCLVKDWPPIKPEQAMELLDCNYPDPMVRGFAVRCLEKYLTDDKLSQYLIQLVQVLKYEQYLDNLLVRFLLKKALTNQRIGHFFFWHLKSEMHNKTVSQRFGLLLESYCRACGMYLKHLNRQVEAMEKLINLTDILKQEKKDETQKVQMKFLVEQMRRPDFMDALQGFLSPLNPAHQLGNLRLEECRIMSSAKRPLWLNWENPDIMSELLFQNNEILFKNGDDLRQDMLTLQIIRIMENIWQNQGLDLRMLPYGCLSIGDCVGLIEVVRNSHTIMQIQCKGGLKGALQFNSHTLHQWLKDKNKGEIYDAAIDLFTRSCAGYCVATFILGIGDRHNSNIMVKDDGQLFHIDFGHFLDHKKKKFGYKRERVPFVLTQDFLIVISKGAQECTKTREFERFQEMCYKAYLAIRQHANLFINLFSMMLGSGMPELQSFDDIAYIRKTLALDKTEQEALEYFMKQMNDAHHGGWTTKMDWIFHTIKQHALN
PRKCQ, sequence (Q04759 whole entry): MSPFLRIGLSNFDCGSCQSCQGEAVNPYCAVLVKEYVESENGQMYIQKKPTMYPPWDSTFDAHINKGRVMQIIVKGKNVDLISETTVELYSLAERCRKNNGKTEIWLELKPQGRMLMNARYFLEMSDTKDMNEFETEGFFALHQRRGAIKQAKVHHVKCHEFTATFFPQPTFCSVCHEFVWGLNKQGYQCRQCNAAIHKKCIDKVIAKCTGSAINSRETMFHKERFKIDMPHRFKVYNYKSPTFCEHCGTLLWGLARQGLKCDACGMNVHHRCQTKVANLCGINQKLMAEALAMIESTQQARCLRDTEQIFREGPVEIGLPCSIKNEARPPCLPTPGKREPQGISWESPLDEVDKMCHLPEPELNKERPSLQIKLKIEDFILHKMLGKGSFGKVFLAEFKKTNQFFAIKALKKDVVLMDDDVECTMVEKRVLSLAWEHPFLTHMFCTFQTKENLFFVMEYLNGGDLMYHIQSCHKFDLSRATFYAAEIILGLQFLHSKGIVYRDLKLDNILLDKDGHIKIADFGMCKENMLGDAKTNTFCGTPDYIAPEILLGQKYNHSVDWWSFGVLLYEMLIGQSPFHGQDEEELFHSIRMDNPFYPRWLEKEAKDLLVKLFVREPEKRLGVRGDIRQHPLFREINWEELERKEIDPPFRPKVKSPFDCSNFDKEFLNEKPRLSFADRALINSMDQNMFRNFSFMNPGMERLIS
BMPR1A, sequence (P36894 whole entry): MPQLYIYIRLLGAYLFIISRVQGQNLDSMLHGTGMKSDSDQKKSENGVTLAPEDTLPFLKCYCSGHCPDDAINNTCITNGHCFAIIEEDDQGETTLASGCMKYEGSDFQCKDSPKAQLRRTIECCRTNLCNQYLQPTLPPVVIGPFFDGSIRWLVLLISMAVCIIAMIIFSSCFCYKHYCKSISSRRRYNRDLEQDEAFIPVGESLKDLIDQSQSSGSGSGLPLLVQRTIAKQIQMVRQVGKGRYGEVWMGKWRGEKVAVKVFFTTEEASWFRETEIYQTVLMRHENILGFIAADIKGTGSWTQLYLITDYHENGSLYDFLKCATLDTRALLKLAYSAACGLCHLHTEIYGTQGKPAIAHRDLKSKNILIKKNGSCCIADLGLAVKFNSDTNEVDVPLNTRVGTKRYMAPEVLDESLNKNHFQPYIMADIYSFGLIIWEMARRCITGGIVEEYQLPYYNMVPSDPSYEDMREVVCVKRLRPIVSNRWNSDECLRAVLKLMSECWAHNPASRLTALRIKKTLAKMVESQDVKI
T6 sequence (Q15418 whole entry): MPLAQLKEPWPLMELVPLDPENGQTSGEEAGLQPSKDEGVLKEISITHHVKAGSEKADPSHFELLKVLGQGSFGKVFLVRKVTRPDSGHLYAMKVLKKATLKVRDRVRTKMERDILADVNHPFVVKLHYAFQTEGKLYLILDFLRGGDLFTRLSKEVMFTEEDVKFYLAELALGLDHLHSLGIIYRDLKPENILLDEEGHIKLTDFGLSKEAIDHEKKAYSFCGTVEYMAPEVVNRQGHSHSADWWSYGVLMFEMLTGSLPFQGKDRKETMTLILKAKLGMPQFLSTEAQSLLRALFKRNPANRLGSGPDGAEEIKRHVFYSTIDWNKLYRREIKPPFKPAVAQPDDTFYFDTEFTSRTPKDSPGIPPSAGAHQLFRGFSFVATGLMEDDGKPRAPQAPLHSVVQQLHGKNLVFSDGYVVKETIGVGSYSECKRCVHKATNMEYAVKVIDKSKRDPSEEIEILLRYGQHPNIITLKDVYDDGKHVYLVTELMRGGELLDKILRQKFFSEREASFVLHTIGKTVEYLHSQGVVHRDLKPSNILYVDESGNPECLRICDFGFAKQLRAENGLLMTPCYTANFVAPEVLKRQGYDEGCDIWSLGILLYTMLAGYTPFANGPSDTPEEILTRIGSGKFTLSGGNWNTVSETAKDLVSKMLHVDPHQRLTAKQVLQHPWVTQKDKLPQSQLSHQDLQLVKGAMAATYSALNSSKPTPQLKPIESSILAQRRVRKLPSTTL

SMILES | remaining binding at 10 µM [1] [%] | remaining binding at 10 µM [2] [%] | remaining binding at 10 µM [3] [%] | remaining binding at 10 µM [4] [%] | remaining binding at 10 µM [5] [%] | remaining binding at 10 µM [6] [%] | remaining binding at 10 µM [7] [%] | remaining binding at 10 µM [8] [%] | remaining binding at 10 µM [9] [%] | remaining binding at 10 µM [10] [%] | remaining binding at 10 µM [11] [%] | remaining binding at 10 µM [12] [%] | remaining binding at 10 µM [13] [%] | remaining binding at 10 µM [14] [%] | remaining binding at 10 µM [15] [%] | remaining binding at 10 µM [16] [%] | remaining binding at 10 µM [17] [%] | remaining binding at 10 µM [18] [%] | remaining binding at 10 µM [19] [%] | remaining binding at 10 µM [20] [%] | other results
COc1ccc(-c2cnccc2-c2cnc(NC(=O)C(C)C)s2)c(C(F)(F)F)c1 [CRT0105446, N-{5-[3-(4-Methoxy-2-trifluoromethyl-phenyl)-pyridin-4-yl]-hiazol-2-yl}-isobutyramide] | 100 | 100 | 100 | 82 | 81 | 100 | 100 | 100 | 86 | 100 | 87 | 100 | 30 | 100 | 95 | 100 | 90 | 100 | 74 | 86 | remaining binding at 10 µM [21]: 43%; remaining binding at 10 µM [22]: 73%
Cc1ccc(-c2cnccc2-c2cnc(Nc3ccc(O)cc3)s2)c(Cl)c1 [CRT0105950, 4-{5-[3-(2-Chloro-4-methyl-phenyl)-pyridin-4-yl]-thiazol-2-ylamino}-phenol] | 82 | 91 | 81 | 26 | 79 | 57 | 11 | 79 | 56 | 32 | 51 | 28 | 17 | 100 | 80 | 44 | 76 | 49 | 13 | 79 | remaining binding at 10 µM [21]: 27%; remaining binding at 10 µM [22]: 45%
